Test results reported in PMC12897534, “Design, synthesis, and antiproliferative activity of new 5-ethylsulfonyl-indazole-3-carbohydrazides as dual EGFR/VEGFR-2 kinases inhibitors” (Journal of Enzyme Inhibition and Medicinal Chemistry, 2025).
Where “and” joins values, the source holds several entries; their conditions need not be identical. Equal entries are not always repeated.

Columns and labels:
[1] = system: A-549 (lung) cancer cell line; assay: Antiproliferative assay, A-549; format: cell-based, human; conditions: Homo sapiens, A549; read-out: Antiproliferative activity IC50 ± SEM, A-549
Description: (§1) Table 1 presents the median inhibitory concentration (IC50) and GI50 (mean IC50) for the four cancer cell lines.
(§2) Refer to Appendix A for additional information.
(§3) To explore the antiproliferative potential of compounds propidium iodide fluorescence assay was performed using different cell lines such as Panc-1 (pancreas cancer cell line) [Panc-1-CTC (RRID:CVCL_VQ69)], MCF-7 (breast cancer cell line) [MCF-7 (RRID:CVCL_0031)], HT-29 (colon cancer cell line) [HT-29 (RRID:CVCL_0320)] and A-549 (epithelial cancer cell line)[A-549 (RRID:CVCL_0023)], respectively. All cell lines were obtained from ATCC (American Type Cell Culture).
(§4) To calculate the total nuclear DNA, a fluorescent dye (propidium iodide, PI) is used which can attach to the DNA, thus offering a quick and precise technique. PI cannot pass through the cell membrane and its signal intensity can be considered as directly proportional to quantity of cellular DNA. Cells whose cell membranes are damaged or have changed permeability are counted as dead ones. The assay was performed by seeding the cells of different cell lines at a density of 3000-7500 cells/well (in 200 μl medium) in culture plates followed by incubation for 24 h at 37 °C in humidified 5% CO2 /95% air atmospheric conditions. The medium was removed; the compounds were added to the plates at 10 μM concentrations (in 0.1% DMSO) in triplicates, followed by incubation for 48 h. DMSO (0.1%) was used as control. After incubation, medium was removed followed by the addition of PI (25 μl, 50 μg/mL in water/medium) to each well of the plates. At -80 °C, the plates were allowed to freeze for 24 h, followed by thawing at 25 °C. A fluorometer (Polar-Star BMG Tech) was used to record the readings at excitation and emission wavelengths of 530 and 620 nm for each well. The percentage cytotoxicity of compounds was calculated using the following formula: […]

[2] = system: MCF-7 (breast) cancer cell line; assay: Antiproliferative assay, MCF-7; format: cell-based, human; conditions: Homo sapiens, MCF7; read-out: Antiproliferative activity IC50 ± SEM, MCF-7
Description: as §1, §2, §3, §4

[3] = system: Panc-1 (pancreatic) cancer cell line; assay: Antiproliferative assay, Panc-1; format: cell-based, human; conditions: Homo sapiens, PANC-1; read-out: Antiproliferative activity IC50 ± SEM, Panc-1
Description: as §1, §2, §3, §4

[4] = system: HT-29 (colon) cancer cell line; assay: Antiproliferative assay, HT-29; format: cell-based, human; conditions: Homo sapiens, read-out: Antiproliferative activity IC50 ± SEM, HT-29
Description: as §1, §2, §3, §4

[5] = system: four cancer cell lines (A-549, MCF-7, Panc-1, HT-29); assay: Antiproliferative assay, mean over the four cancer cell lines (GI50); format: cell-based, human; conditions: for IC50: Homo sapiens, mean IC50 of A-549, MCF-7, Panc-1, HT-29
Source text: as §1, §2
All cell lines were obtained from ATCC (American Type Cell Culture). […]

EGFR = EGFR (Homo sapiens, UniProt P00533); assay: EGFR-TK inhibitory assay; conditions: EGFR inhibition IC50 ± SEM
Sequence of EGFR (P00533 669-1210): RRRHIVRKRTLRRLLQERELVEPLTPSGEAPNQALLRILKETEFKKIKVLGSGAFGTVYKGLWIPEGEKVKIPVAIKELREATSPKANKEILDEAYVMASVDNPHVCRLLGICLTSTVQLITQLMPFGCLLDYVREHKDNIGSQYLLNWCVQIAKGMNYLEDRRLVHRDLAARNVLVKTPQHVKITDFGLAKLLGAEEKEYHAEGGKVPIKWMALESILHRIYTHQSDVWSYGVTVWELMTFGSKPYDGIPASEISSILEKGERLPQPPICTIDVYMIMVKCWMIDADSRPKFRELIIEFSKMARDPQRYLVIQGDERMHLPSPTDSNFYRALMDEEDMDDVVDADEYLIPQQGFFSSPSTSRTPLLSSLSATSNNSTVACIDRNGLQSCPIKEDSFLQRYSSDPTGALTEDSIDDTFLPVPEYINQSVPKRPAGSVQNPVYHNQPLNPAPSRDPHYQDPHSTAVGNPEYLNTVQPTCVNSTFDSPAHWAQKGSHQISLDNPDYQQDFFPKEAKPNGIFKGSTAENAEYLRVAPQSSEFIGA
Description: To record autophosphorylation level, EGFR kinase assay was carried out on the basis of DELFIA/Time-Resolved Fluorometry. […] Each compound (10 μL) was incubated with recombinant enzyme (10 μL, 5 ng for EGFR, 1:80 dilution in 100 mM HEPES) for 10 min at 25 °C, subsequent to the addition of 5X buffer (10 μL, containing 2 mM MnCl2, 100 μM Na3VO4, 20 mM HEPES and 1 mM DTT) and ATP-MgCl2 (20 μL, containing 0.1 mM ATP and 50 mM MgCl2) and incubation for 1h. The negative and positive controls were included in each plate by the incubation of enzyme either with or without ATP-MgCl2. The liquid was removed after incubation and the plates were washed thrice using a wash buffer. The Europium-tagged antiphosphotyrosine antibody (75 μL, 400 ng) was added to each well followed by incubation of 1h and then washing of the plates using buffer. […] The autophosphorylation percentage inhibition by compounds was calculated using the following equation:
The majority of signals detected by antiphosphotyrosine antibody were from EGFR because the enzyme preparation contained low impurities.

VEGFR-2 = VEGFR-2 (Homo sapiens, UniProt P35968); assay: VEGFR-2 kinase inhibitory assay
Sequence of VEGFR-2 (P35968 20-1356): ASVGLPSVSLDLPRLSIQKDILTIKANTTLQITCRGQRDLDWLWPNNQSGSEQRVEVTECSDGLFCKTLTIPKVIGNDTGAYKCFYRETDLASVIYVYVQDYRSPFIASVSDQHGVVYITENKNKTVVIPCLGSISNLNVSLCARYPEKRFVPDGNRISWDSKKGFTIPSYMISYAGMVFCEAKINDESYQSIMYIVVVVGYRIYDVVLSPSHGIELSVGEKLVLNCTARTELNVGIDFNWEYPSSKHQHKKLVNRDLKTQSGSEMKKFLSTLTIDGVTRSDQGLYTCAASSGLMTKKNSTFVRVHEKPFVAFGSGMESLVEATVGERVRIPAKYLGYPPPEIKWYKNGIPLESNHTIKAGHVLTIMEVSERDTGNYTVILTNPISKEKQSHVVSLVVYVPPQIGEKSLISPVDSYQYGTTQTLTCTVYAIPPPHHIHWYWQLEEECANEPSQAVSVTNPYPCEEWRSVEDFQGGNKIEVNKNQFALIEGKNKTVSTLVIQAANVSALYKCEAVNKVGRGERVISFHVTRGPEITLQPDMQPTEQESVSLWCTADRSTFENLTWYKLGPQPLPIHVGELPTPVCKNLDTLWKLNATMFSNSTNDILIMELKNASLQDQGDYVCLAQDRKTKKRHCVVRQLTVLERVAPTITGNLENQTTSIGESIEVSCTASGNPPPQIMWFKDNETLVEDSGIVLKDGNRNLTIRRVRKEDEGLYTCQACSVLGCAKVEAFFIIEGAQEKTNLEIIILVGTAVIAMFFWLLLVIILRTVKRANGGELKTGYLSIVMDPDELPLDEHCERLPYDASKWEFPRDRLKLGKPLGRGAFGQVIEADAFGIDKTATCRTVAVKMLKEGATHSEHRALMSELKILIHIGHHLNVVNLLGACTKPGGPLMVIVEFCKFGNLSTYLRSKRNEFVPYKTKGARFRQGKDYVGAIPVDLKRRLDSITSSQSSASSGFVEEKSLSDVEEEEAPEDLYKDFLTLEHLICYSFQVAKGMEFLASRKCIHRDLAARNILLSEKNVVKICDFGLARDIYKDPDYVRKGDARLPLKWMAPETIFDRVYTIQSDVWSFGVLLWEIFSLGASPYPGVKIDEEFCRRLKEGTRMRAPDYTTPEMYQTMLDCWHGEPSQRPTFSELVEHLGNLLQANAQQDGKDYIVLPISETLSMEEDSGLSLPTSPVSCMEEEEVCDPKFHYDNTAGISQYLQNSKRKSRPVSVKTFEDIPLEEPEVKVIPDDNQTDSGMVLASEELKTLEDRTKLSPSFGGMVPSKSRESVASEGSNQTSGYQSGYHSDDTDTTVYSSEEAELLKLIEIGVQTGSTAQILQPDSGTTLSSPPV
Description: Prepare all the solutions using autoclaved, deionized water and analytical grade reagents. Prepare and store all the reagents at room temperature (unless indicated otherwise). […] The assays used an ULight-labeled peptide substrate and a Europium-W1024-labeled antiphosphotyrosine antibody. The VEGFR-2 was purchased from Carna Biosciences, Inc. (New York, USA). The 384-well plates were obtained from PerkinElmer. […] Negative control: 2.5 μL/well 4×substrate/ATP mixture and 7.5 μL 1×kinase assay buffer in 384-well plate well. […] After incubation at room temperature and dark for 60 min, 5 μL 4×stop solution was added to corresponding wells to react for 5 min and then 5 μL 4×detection mix was added to the corresponding wells of a 384-well plate. The mixture was centrifugally mixed and stayed for 60 min at room temperature for color development. The plate was read using an Envision plate reader. The inhibition rate (%) = (positive well reading-compound well reading)/(positive well reading-negative well reading)×100. The corresponding IC50 values were calculated using GraphPad Prism 5.0.

[6] = Cell viability assay (MTT) on normal cell line; conditions: human, MCF-10A normal mammary gland epithelial cells
Description: The viability of the investigated compounds was assessed using the normal human mammary gland epithelial cell line MCF-10A. After four days of incubation on MCF-10A cells with 50 µM of each examined compound, cell viability was assessed using the MTT test[46]^,[47].
The viability of 7a–o was determined using the normal human mammary gland epithelial (MCF-10A) cell line^46,[47].
MTT assay was performed to investigate the effect of the synthesized compounds on mammary epithelial cells (MCF-10A). The cells were propagated in medium consisting of Ham's F-12 medium/ Dulbecco's modified Eagle's medium (DMEM) (1:1) supplemented with 10% foetal calf serum (GIBCO, UK), 2 mM glutamine, insulin (10 μg/mL), hydrocortisone (500 ng/mL) and epidermal growth factor (20 ng/mL). Trypsin ethylenediamine tetra acetic acid (EDTA) was used to passage the cells after every 2-3 days. 96-well flat-bottomed cell culture plates were used to seed the cells at a density of 10^4 cells mL^-1. The medium was aspirated from all the wells of culture plates after 24 h followed by the addition of synthesized compounds (in 200 μL medium to yield a final concentration of 0.1% (v/v) dimethyl sulfoxide) into individual wells of the plates. Four wells were designated to a single compound. The plates were allowed to incubate at 37°C for 96 h. Afterwards, the medium was aspirated and 3-[4,5-dimethylthiazol-2-yl]-2,5-diphenyltetrazolium bromide (MTT) (0.4 mg/mL) in medium was added to each well and subsequently incubated for 3 h. The medium was aspirated and 150 μL dimethyl sulfoxide (DMSO) was added to each well. The plates were vortexed followed by the measurement of absorbance at 540 nm on a microplate reader.

Row | Compound | IC50 [1] [nM] | IC50 [2] [nM] | IC50 [3] [nM] | IC50 [4] [nM] | IC50 [5] [nM] | IC50 (EGFR) | IC50 (VEGFR-2) [nM] | viability at 96 h, 50 µM [6] [%] | Fold less potent than 7j (GI50) ([5]; GI50 ratio to 7j) [fold] | Fold less potent than 7 g (GI50) ([5]; GI50 ratio to 7 g) [fold] | Fold less potent than 7i (GI50) ([5]; GI50 ratio to 7i) [fold] | Fold less potent than 7 l (GI50) ([5]; GI50 ratio to 7 l) [fold]
1 | CCS(=O)(=O)c1ccc2[nH]nc(C(=O)N/N=C/c3ccc(O)cc3)c2c1 [Compound 7i, (E)-5-(ethylsulfonyl)-N′-(4-hydroxybenzylidene)-1H-indazole-3-carbohydrazide] | 31 ± 2 | 34 ± 2 | 32 ± 2 | 32 ± 2 | 32 | 83 nM and 81 nM | 36 ± 2 | 92 |  |  |  | 
2 | CCS(=O)(=O)c1ccc2[nH]nc(C(=O)N/N=C/c3ccc4c(cnn4C)c3)c2c1 [Compound 7c, (E)-5-(ethylsulfonyl)-N′-((1-methyl-1H-indazol-5-yl)methylene)-1H-indazole-3-carbohydrazide] | 56 ± 4 | 59 ± 4 | 58 ± 4 | 58 ± 4 | 58 |  |  | 91 |  |  |  | 
3 | C#Cc1cccc(Nc2ncnc3cc(OCCOC)c(OCCOC)cc23)c1 [Erlotinib, reference compound] | 30 ± 3 | 40 ± 3 | 30 ± 3 | 30 ± 3 |  |  |  |  |  |  |  | 
4 | CCS(=O)(=O)c1ccc2[nH]nc(C(=O)N/N=C/C3CC3)c2c1 [Compound 7m, (E)-N′-(cyclopropylmethylene)-5-(ethylsulfonyl)-1H-indazole-3-carbohydrazide] | 49 ± 3 | 52 ± 4 | 50 ± 4 | 50 ± 4 | 50 |  |  | 94 |  |  |  | 
5 | CCS(=O)(=O)c1ccc2[nH]nc(C(=O)N/N=C/c3nccs3)c2c1 [Compound 7e, (E)-5-(ethylsulfonyl)-N′-(thiazol-2-ylmethylene)-1H-indazole-3-carbohydrazide] | 58 ± 4 | 61 ± 5 | 60 ± 5 | 60 ± 5 | 60 |  |  | 94 | 2.3 |  |  | 
6 | CCS(=O)(=O)c1ccc2[nH]nc(C(=O)N/N=C/c3cccnc3)c2c1 [Compound 7b, (E)-5-(ethylsulfonyl)-N′-(pyridin-3-ylmethylene)-1H-indazole-3-carbohydrazide] | 47 ± 3 | 50 ± 4 | 48 ± 3 | 48 ± 3 | 48 |  |  | 92 |  |  |  | 
7 | CCS(=O)(=O)c1ccc2[nH]nc(C(=O)N/N=C/c3ccc(OC)c(O)c3)c2c1 [Compound 7g, (E)-5-(ethylsulfonyl)-N′-(3-hydroxy-4-methoxybenzylidene)-1H-indazole-3-carbohydrazide] | 35 ± 2 | 38 ± 2 | 36 ± 2 | 36 ± 2 | 36 | 81 nM and 83 nM | 39 ± 2 | 91 |  |  |  | 
8 | CCS(=O)(=O)c1ccc2[nH]nc(C(=O)N/N=C/c3ccc(C#N)cc3)c2c1 [Compound 7a, (E)-N′-(4-Cyanobenzylidene)-5-(ethylsulfonyl)-1H-indazole-3-carbohydrazide] | 77 ± 6 | 79 ± 6 | 77 ± 6 | 78 ± 6 | 78 |  |  | 94 |  | 2.1 | 2.4 | 1.9
9 | CCS(=O)(=O)c1ccc2[nH]nc(C(=O)N/N=C/c3ccc4ncccc4c3)c2c1 [Compound 7d, (E)-5-(ethylsulfonyl)-N′-(quinolin-6-ylmethylene)-1H-indazole-3-carbohydrazide] | 53 ± 4 | 55 ± 4 | 54 ± 4 | 54 ± 4 | 54 |  |  | 92 |  |  |  | 
10 | CCS(=O)(=O)c1ccc2[nH]nc(C(=O)N/N=C/c3cncnc3)c2c1 [Compound 7h, (E)-5-(ethylsulfonyl)-N′-(pyrimidin-5-ylmethylene)-1H-indazole-3-carbohydrazide] | 67 ± 5 | 70 ± 6 | 68 ± 5 | 68 ± 5 | 68 |  |  | 93 |  |  |  | 
11 | CCS(=O)(=O)c1ccc2[nH]nc(C(=O)N/N=C/C3CCCC3)c2c1 [Compound 7n, (E)-N′-(cyclopentylmethylene)-5-(ethylsulfonyl)-1H-indazole-3-carbohydrazide] | 63 ± 5 | 66 ± 5 | 64 ± 5 | 64 ± 5 | 64 |  |  | 90 |  |  |  | 
12 | CCS(=O)(=O)c1ccc2[nH]nc(C(=O)N/N=C/c3ccc4c(ccn4C)c3)c2c1 [Compound 7f, (E)-5-(ethylsulfonyl)-N′-((1-methyl-1H-indol-5-yl)methylene)-1H-indazole-3-carbohydrazide] | 71 ± 6 | 75 ± 6 | 73 ± 6 | 72 ± 6 | 73 |  |  | 92 |  |  |  | 
